These results are taken from US6898455B2, “Method for providing optimal drug dosage” (The McLean Hospital Corporation, priority 1999, dated 2005).

In assay [1] the test system is cerebellar vermis of boys with ADHD. Briefly: T2 relaxometry (fMRI) of the cerebellar vermis after one week of daily treatment. It counts as in vivo, human. Conditions: for decrease in vermal T2-RT relative to placebo (average): three least active boys with ADHD. As for the experimental part:
(§1) In one particular embodiment, T2 relaxometry was used to indirectly assess blood volume in the cerebellum (hemispheres and midline vermis) of ten ADHD boys treated continuously for one week with placebo and three different doses of MPH. […] Following each week of treatment, and within 1-3 hours of their afternoon dose, testing for drug efficacy was performed using objective measures of activity.
Ten boys with ADHD (9.3±1.6 yr), and six healthy comparison subject boys (10.2±1.5 yr) were studied. Children with ADHD were screened using structured diagnostic interview (the Schedule for Affective Disorders and Schizophrenia for School-Age Children—Epidemiologic Version, “K-SADS-E”) and included if they met criteria for ADHD, and had at least 6 of 9 symptoms of inattention or hyperactivity-impulsivity. Children then took part in a triple blind (parent, child, rater), randomized, placebo-controlled study on the effects of methylphenidate (0, 0.5, 0.8, 1.5 mg/kg/day in two divided doses) on activity and fMRI. Children were treated continuously for one week with placebo or specific dose of methylphenidate. They were tested on day seven for drug response using objective measures of activity immediately following fMRI.
On test days, parents were instructed to give the afternoon dose 1 hour prior to their MRI appointment. Medication administration was assessed at each visit to insure that time between ingestion and testing were held constant for each subject throughout the study.
During each examination, 3 categories of images were obtained: (1) Scout images (typically T1-weighted sagittal images); (2) High resolution T1 matched axial images through the ten planes for which maps of T2 were generated; and (3) 32 spin echo, echoplanar image sets, with TE incremented by 4 msec in each consecutive image set (e.g. TE (1)=32 msec, TE (2)=36 msec, . . . TE (32)=156 msec) through the same ten axial planes ([…], Slice thickness=7 mm with a 3 mm skip, in-plane resolution=3.125 mm×3.125 mm, FOV=200 mm). The 32 TE-stepped images were then transferred to an off-line workstation and corrected for in plane motion using a modification of the DART image registration algorithm.
Values of T2 (x, y) and S (TE=0, x, y) were then calculated on a pixel-wise basis, assuming exponential decay, i.e. 1n [S (x, y, n)]=1n [S (TE=0), x, y]−TE (n)/T2 (x, y) where (x, y) describe the location of the pixel; n characterizes the echo number, from 1 to 32; and S is the image signal intensity. Linear least-squares regression was used to calculate a single T2 relaxation time measure for each pixel (x, y). Calculations of regional T2 relaxation time were made for regions of interest (ROI) drawn manually under the guidance of conventional T1-wighted matched MRI images in 2 to 4 slices through the cerebellum using anatomic boundaries observed in T1-weighted, preliminary T2-RT maps, and an atlas of the cerebellum. ROI slice selections were based on an assessment of the presence of cerebral spinal fluid in order to minimize partial volume artifacts, which result in abnormally elevated T2 relaxation times (values>100 msec were rejected). Sixteen voxel ROI's in the vermis were conservatively limited to square regions ([…]), to avoid encroaching into ventricular space and to provide consistency between slices and subjects.
FIGS. 7A and 7B show representative cerebellar ROIs including the vermis V and the left and right cerebella C. Delineation of regions and analysis of imaging data were performed on coded images, by an analyst very familiar with cerebellar anatomy who was blind to the identity, diagnosis, and treatment condition of the subject.

The test system of assay [2] is regional brain metabolism. Conditions: cited from earlier work; for effect of chronic treatment on regional brain metabolism (PET): adult ADHD patients, Matochik et al. 1994.
The test system of assay [3] is caudate or thalamus of children with ADHD. Kind of assay: T2 relaxometry of caudate and thalamus, blinded placebo-controlled daily treatment. It counts as in vivo, human. An excerpt:
(§2) With this particular arrangement, an apparatus for indirectly assessing blood volume in the striatum (caudate and putamen and cerebellum) under steady-state conditions and for non-invasively diagnosing ADHD is provided. […] In one study eleven boys with ADHD had higher T2 relaxation times than six non-ADHD boys. The probability of this occurring by chance is 0.8%. The relaxation times correlated with the child's capacity to sit still, and their accuracy in performing a computerized attention task. Product-moment correlation coefficients (denoted r) for each of the above activities as well as with a probability of finding this occurrence by chance (denoted p) were computed using conventional techniques. […] It was discovered that ADHD symptoms may be closely tied to functional abnormalities in the putamen and cerebellum which are predominantly involved in the regulation and coordination of motoric behavior. […]
(§3) Turning now to FIG. 2, processing begins in steps 40 and 42 in which after positioning subjects to be tested (e.g. children or other persons possibly having brain dysfunction) in a scanning region of an MRI system of the type described above in conjunction with FIG. 1, and instructing the subjects to remain as still as possible, images of particular regions of interest (ROI) are acquired by perturbing the magnetic field in the subject and taking readings at particular times. […]

For assay [4], the system named is putamen of children with ADHD. Conditions: stated as known; cited from earlier work.
Assay [5] relates to cerebellum of the most hyperactive ADHD boys. Kind of assay: T2 relaxometry of the cerebellum, blinded placebo-controlled daily treatment (summary study). Conditions: eight of the most hyperactive boys; F3,21=5.011, p=0.0089. Format: in vivo, human. An excerpt: With this particular arrangement, an apparatus for indirectly assessing blood volume in the striatum (caudate and putamen and cerebellum) under steady-state conditions and for non-invasively diagnosing ADHD is provided. […] In one study eleven boys with ADHD had higher T2 relaxation times than six non-ADHD boys. The probability of this occurring by chance is 0.8%. The relaxation times correlated with the child's capacity to sit still, and their accuracy in performing a computerized attention task. Product-moment correlation coefficients (denoted r) for each of the above activities as well as with a probability of finding this occurrence by chance (denoted p) were computed using conventional techniques. […] It was discovered that ADHD symptoms may be closely tied to functional abnormalities in the putamen and cerebellum which are predominantly involved in the regulation and coordination of motoric behavior. […] It should also be appreciated that the apparatus and technique of the present invention may be equally applied to other brain regions (or even other organs) and may be useful for diagnosing conditions other than ADHD.
Referring now to FIG. 5, a T2 relaxation time image of the brain and cerebellum is shown. Circumscribed ROIs are illustrated for the cerebellar vermis V as well as, right R and left L cerebellar hemispheres. […]

The subject of assay [6] is cerebellar hemispheres of boys with ADHD. Kind of assay: T2 relaxometry (fMRI) of the cerebellar hemispheres after one week of daily treatment. It counts as in vivo, human. Conditions: Dose F=0.88, p>0.4; Dose x Activity F=0.47, p>0.7. As for the experimental part:
as §1
Ten boys with ADHD (9.3±1.6 yr), and six healthy comparison subject boys (10.2±1.5 yr) were studied. Children with ADHD were screened using structured diagnostic interview (the Schedule for Affective Disorders and Schizophrenia for School-Age Children—Epidemiologic Version, “K-SADS-E”) and included if they met criteria for ADHD, and had at least 6 of 9 symptoms of inattention or hyperactivity-impulsivity. […]
On test days, parents were instructed to give the afternoon dose 1 hour prior to their MRI appointment. Medication administration was assessed at each visit to insure that time between ingestion and testing were held constant for each subject throughout the study. […]
Values of T2 (x, y) and S (TE=0, x, y) were then calculated on a pixel-wise basis, assuming exponential decay, i.e. 1n [S (x, y, n)]=1n [S (TE=0), x, y]−TE (n)/T2 (x, y) where (x, y) describe the location of the pixel; n characterizes the echo number, from 1 to 32; and S is the image signal intensity. […]

Assay [7] deals with putamen of children with ADHD. Kind of assay: T2 relaxometry of the putamen, blinded placebo-controlled daily treatment. It counts as in vivo, human. Conditions: p=0.006.
Source text: as §2, §3

The test system of assay [8] is adult ADHD subjects. The conditions noted are these: i.v., Ernst et al. 1998; cited from earlier work.

Turning to `COC(=O)C(c1ccccc1)C1CCCCN1` (stereo not drawn) [methylphenidate], the “increase in vermal T2-RT relative to placebo” value was 5.1% in assay [1] (high dose (1.5 mg/kg/day, one week), seven hyperactive ADHD boys); 2.1% in assay [1] (intermediate dose (0.8 mg/kg/day, one week), seven hyperactive ADHD boys); 1.2% in assay [1] (low dose (0.5 mg/kg/day, one week), seven boys at least 20% more active than the most active comparison subject). Further, the “decrease in vermal T2-RT relative to placebo (average)” value in assay [1] (high dose (1.5 mg/kg/day, one week)) worked out at 3.9%; in assay [1] (intermediate dose (0.8 mg/kg/day, one week)) it was 3.5%; in assay [1] (low dose (0.5 mg/kg/day, one week)), 1.3%. The “group effect (hyperactive vs non-hyperactive boys) on percent change in vermis T2-RT” value is recorded as “significant group effect” in assay [1] (high dose, F=15.98, df=1, 8, p=0.004); “significant group effect” in assay [1] (intermediate dose, F=6.75, df=1, 8, p=0.04); “non-significant group effect” in assay [1] (low dose, F=0.63, df=1, 8, p=0.63). Further, the “effect size (Cohen d) of the medication-induced change in T2-RT” value in assay [1] (highest dose, hyperactive subjects, 95% CI in brackets) is on record as 2.13 (95% CI, 0.82-3.44). The “effect of moderate and high doses on T2-RT (direction by basal activity)” value in assay [1] (increase in the most active ADHD children, reduction in those not objectively hyperactive) was “increased T2-RT in a rate-dependent manner”. Moreover, the “effect of dose on cerebellar or vermal T2-RT, repeated-measures ANOVA without covariate” value in assay [1] (ten ADHD boys, F=1.167, df=3, 27, p=0.34) was “failed to reveal any significant effect of dose”. In addition, in assay [1] (ten ADHD boys, F=4.85, df=3, 24, p=0.009, effect of dose linear), the “effect of treatment on vermal T2-RT, analysis of covariance with motor activity” value is listed as “robust effect”. Moreover, the “effect of chronic treatment on regional brain metabolism (PET)” value in assay [2] is given as “no consistent effect”. Moreover, in assay [2] (subjects with high availability of DA D2 receptors, Volkow et al. 1997), the “effect on frontotemporal metabolism” value is reported as “increased frontotemporal metabolism”. For the same compound, the effect on metabolism result in assay [2] (subjects with low availability of D2 receptors, Volkow et al. 1997) is recorded as “decreased metabolism”. For the same compound, the “change of relaxation times in caudate or thalamus” value in assay [3] is “nor did relaxation times in these regions change”. Also, the “effect of daily high-dose treatment on T2-RT in the putamen” value in assay [4] is on record as “changed T2-RT in the putamen”. For the same compound, the “effect on relaxation times in the cerebellum” value in assay [5] is recorded as “dose-dependently altered”. For the same compound, the “effect of treatment on T2-RT in the adjacent cerebellar hemispheres” value in assay [6] is given as “No effect”. The “effect on relaxation times in the putamen” value in assay [7] is listed as “significantly altered”.
For the compound `C[C@H](N)Cc1ccccc1` [dextroamphetamine], in assay [2], the “effect of chronic treatment on regional brain metabolism (PET)” value was “no consistent effect”. Moreover, in assay [2] (i.v., adult ADHD subjects, Ernst et al. 1998), the “effect on global or regional metabolic rates” value is given as “no consistent effect”. Besides, the effect on attention entry in assay [8] is “robust effects on attention”.
